Tests used:
Experiment in all cases: DHFR activity, NADPH consumption at […] nm
Type in all cases: biochemical
[1] = target: T1, S. suis dihydrofolate reductase (SsDHFR) (Streptococcus suis, UniProt A0A0H3N4C4); conditions: 1 µM inhibitor; 0.1 mM dihydrofolate, 0.1 mM NADPH, 50 mM TES pH 7.0; lysate of overexpressing E. coli BL21(DE3), host DHFR background present
T1 construct: gene dyr; full-length dhfr in pET15b (NdeI/BamHI, N-terminal vector tag kept); clarified lysate of E. coli BL21(DE3), not purified
T1 sequence (A0A0H3N4C4 1-170): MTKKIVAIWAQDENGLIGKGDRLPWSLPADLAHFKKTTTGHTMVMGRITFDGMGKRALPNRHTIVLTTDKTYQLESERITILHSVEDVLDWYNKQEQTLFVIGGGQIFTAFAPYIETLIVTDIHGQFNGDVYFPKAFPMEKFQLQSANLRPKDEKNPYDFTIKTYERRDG

[2] = target: T1, S. suis dihydrofolate reductase (SsDHFR)
[3] = target: T1, S. suis dihydrofolate reductase (SsDHFR); conditions: 0.1 mM dihydrofolate, 0.1 mM NADPH, 50 mM TES pH 7.0; lysate

Row | SMILES | % activity at 1 μM [1] | further results
1 | CCc1nc(N)nc(N)c1-c1ccc(Cl)cc1 [pyrimethamine] | Trimethoprim, pyrimethamine, and cycloguanil were moderately effective at inhibiting SsDHFR | –
2 | CC1(C)N=C(N)N=C(N)N1c1ccc(Cl)cc1 [cycloguanil] | Trimethoprim, pyrimethamine, and cycloguanil were moderately effective at inhibiting SsDHFR | –
3 | COc1ccc(OC)c(NCc2ccc3nc(N)nc(N)c3c2Cl)c1 [MMV675968] | – | remaining activity at 1 µM [2]: 2%
4 | NC(=O)C1=CN([C@@H]2O[C@H](COP(=O)(O)OP(=O)(O)OC[C@H]3O[C@@H](n4cnc5c(N)ncnc54)[C@H](OP(=O)(O)O)[C@@H]3O)[C@@H](O)[C@H]2O)C=CC1 [NADPH] | – | DHFR activity, NADPH consumption at 340 nm [3]: DHFR uses NADPH as a cofactor for the conversion of dihydrofolate (DHF) to tetrahydrofolate (THF)

Source: publication PMC7866885 (PeerJ, 2021)
